From patent US10829520B2, “Beta-hairpin peptidomimetics” (POLYPHOR AG, priority 2015, dated 2020)
Where a SMILES comes first, the peptide text is derived from it. Bridges are numbered along the chain shown (N, C = ends). Roman numbers before positions name the chains, in order. [ ]: non-standard residue; d: D form. NMeW = CN[C@@H](Cc1c[nH]c2ccccc12)C(=O)O; Tle = CC(C)(C)[C@H](N)C(=O)O; dDab = NCC[C@@H](N)C(=O)O; Nle = CCCC[C@H](N)C(=O)O; Orn = NCCC[C@H](N)C(=O)O; Dab = NCC[C@H](N)C(=O)O; Dap = NC[C@H](N)C(=O)O; Sar = CNCC(=O)O

How the values were obtained:
Assay type in all cases: cell-based
[1] = test system: Klebsiella pneumoniae 968733; details: 968733
[2] = test system: Pseudomonas aeruginosa ATCC 27853; details: ATCC 27853
Outline: (§1)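 CLSI broth microdilution in cation-adjusted Mueller-Hinton II broth with 0.002% Polysorbate 80, inoculum appr. 10^6 CFU/mL, peptides in serial two-fold dilutions. MIC (μg/mL) is the lowest concentration with no visible growth after 18-20 hours at 35° C.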

[3] = test system: Acinetobacter baumannii DSM 30008; details: DSM 30008
Outline: as §1

[4] = test system: Escherichia coli ATCC 25922; details: ATCC 25922
Outline: as §1

[5] = test system: Acinetobacter baumannii 872842; details: 872842
[6] = test system: Klebsiella pneumoniae SSI #3010; details: SSI #3010
Outline: as §1

Escherichia coli 926415 = details: 926415
[7] = test system: human red blood cells (hRBC); test: Hemolysis of human red blood cells; details: red cells of human, 1 h
Outline: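 Hemolysis was read as supernatant absorbance at 540 nm and expressed as a percentage of Triton X-100 (2.5%) lysis. Washed human red cells (20% v/v) had been exposed to each peptide at 100 μg/mL for 1 h at 37° C.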

SMILES	Klebsiella pneumoniae 968733 MIC [1] [µg/mL]	Pseudomonas aeruginosa ATCC 27853 MIC [2] [µg/mL]	Acinetobacter baumannii DSM 30008 MIC [3] [µg/mL]	Escherichia coli ATCC 25922 MIC [4] [µg/mL]	Acinetobacter baumannii 872842 MIC [5] [µg/mL]	Klebsiella pneumoniae SSI #3010 MIC [6] [µg/mL]	Escherichia coli 926415 MIC (Escherichia coli 926415) [µg/mL]	Hemolysis at 100 μg/mL [7]; 100 [%]	Hemolysis at 100 μg/mL ([7]; 100 μg/mL) [%]
CCCC[C@@H]1NC(=O)[C@@H]2CCCN2C(=O)[C@H]2CCCN2C(=O)[C@H](CO)NC(=O)[C@H](C)NC(=O)[C@H](C(C)(C)C)NC(=O)[C@H](CCN)NC(=O)[C@H](Cc2c[nH]c3ccccc23)NC(=O)[C@H](CCC(=O)N[C@@H](CCN)C(=O)N[C@H]2CCNC(=O)[C@H]([C@@H](C)O)NC(=O)[C@H](CCN)NC(=O)[C@H](CCN)NC(=O)[C@H](CC(C)C)NC(=O)[C@@H](CC(C)C)NC(=O)[C@H](CCN)NC2=O)NC(=O)[C@@H](CCN)NC(=O)[C@H](CCCN)NC(=O)[C@H](CCN)NC(=O)[C@H](Cc2ccc(O)cc2)NC(=O)[C@H](CO)NC1=O [Ex. 70] (I: cyclo([Nle]SY[Dab][Orn][dDab]EW[Dab][Tle]AS[dP]P) / II: [Dab][Dab][Dab][dL]L[Dab][Dab]T; amide I:7-II:N; lactam II:2-II:C)	8	0.5	1	1	2	2	1	<1	–
CC(C)C[C@@H]1NC(=O)[C@@H](CC(C)C)NC(=O)[C@H](CCN)NC(=O)[C@@H](NC(=O)[C@@H](CCN)NC(=O)[C@@H]2CSSC[C@H](N)C(=O)N[C@@H](Cc3c[nH]c4ccccc34)C(=O)N[C@@H](CCN)C(=O)N[C@@H](C(C)C)C(=O)N[C@@H]([C@@H](C)O)C(=O)N[C@@H](Cc3ccc(O)cc3)C(=O)N3CCC[C@@H]3C(=O)N3CCC[C@H]3C(=O)N[C@@H](CC(C)C)C(=O)N[C@@H](CO)C(=O)N[C@@H](Cc3ccc(O)cc3)C(=O)N[C@@H](CCN)C(=O)N[C@@H](CCN)C(=O)N2)CCNC(=O)[C@H]([C@@H](C)O)NC(=O)[C@H](CCN)NC(=O)[C@H](CCN)NC1=O [Ex. 209] (H-CW[Dab]VTY[dP]PLSY[Dab][Dab]C[dDab][Dab][Dab][dL]L[Dab][Dab]T; disulfide 1-14; lactam 16-C)	0.5	1	0.5	0.125	0.5	0.25	0.25	–	3
CCCC[C@@H]1NC(=O)[C@@H]2CCCN2C(=O)[C@H]2CCCN2C(=O)[C@H](CO)NC(=O)[C@H](C)NC(=O)[C@H](C(C)(C)C)NC(=O)[C@H](CCN)NC(=O)[C@H](Cc2c[nH]c3ccccc23)NC(=O)[C@H](CCN)NC(=O)[C@@H](CCC(=O)N[C@@H](CCN)C(=O)N[C@H](C(=O)N[C@@H](CCN)C(=O)N[C@H]2CCNC(=O)[C@H]([C@@H](C)O)NC(=O)[C@H](CCN)NC(=O)[C@H](CCN)NC(=O)[C@H](CC(C)C)NC(=O)[C@@H](Cc3ccccc3)NC(=O)[C@H](CCN)NC2=O)[C@@H](C)O)NC(=O)[C@H](CCCN)NC(=O)[C@H](CCN)NC(=O)[C@H](Cc2ccc(O)cc2)NC(=O)[C@H](CO)NC1=O [Ex. 9] (I: cyclo([Nle]SY[Dab][Orn][dE][Dab]W[Dab][Tle]AS[dP]P) / II: [Dab]T[Dab][Dab][Dab][dF]L[Dab][Dab]T; amide I:6-II:N; lactam II:4-II:C)	2	0.5	0.25	0.25	2	0.5	1	1	–
CCCC[C@@H]1NC(=O)[C@@H]2CCCN2C(=O)[C@H]2CCCN2C(=O)[C@H](CO)NC(=O)[C@H](C)NC(=O)[C@H](C(C)(C)C)NC(=O)[C@H](CCN)NC(=O)[C@H](Cc2c[nH]c3ccccc23)NC(=O)[C@H](CCN)NC(=O)[C@@H](CCC(=O)N[C@H](C(=O)N[C@@H](CCN)C(=O)N[C@H]2CCNC(=O)[C@H]([C@@H](C)O)NC(=O)[C@H](CCN)NC(=O)[C@H](CCN)NC(=O)[C@H](CC(C)C)NC(=O)[C@@H](Cc3ccccc3)NC(=O)[C@H](CCN)NC2=O)[C@@H](C)O)NC(=O)[C@H](CCCN)NC(=O)[C@H](CCN)NC(=O)[C@H](Cc2ccc(O)cc2)NC(=O)[C@H](CO)NC1=O [Ex. 5] (I: cyclo([Nle]SY[Dab][Orn][dE][Dab]W[Dab][Tle]AS[dP]P) / II: T[Dab][Dab][Dab][dF]L[Dab][Dab]T; amide I:6-II:N; lactam II:3-II:C)	2	0.5	0.5	2	1	0.5	0.5	1	–
CC(=O)N[C@@H](Cc1c[nH]c2ccccc12)C(=O)N[C@H]1CSSC[C@@H](C(=O)N[C@@H](CCCN)C(=O)N[C@H](C(=O)N[C@@H](CCN)C(=O)N[C@H]2CCNC(=O)[C@H]([C@@H](C)O)NC(=O)[C@H](CCN)NC(=O)[C@H](CCN)NC(=O)[C@H](CC(C)C)NC(=O)[C@@H](Cc3ccccc3)NC(=O)[C@H](CCN)NC2=O)[C@@H](C)O)NC(=O)[C@H](Cc2ccc(O)cc2)NC(=O)CNC(=O)[C@H](CC(C)C)NC(=O)[C@@H]2CCCN2C(=O)[C@H]2CCCN2C(=O)[C@H](CO)NC(=O)[C@H](CN)NC(=O)[C@H](C(C)(C)C)NC1=O [Ex. 117] (Ac-WC[Tle][Dap]S[dP]PLGYC[Orn]T[Dab][Dab][Dab][dF]L[Dab][Dab]T; disulfide 2-11; lactam 15-C)	2	2	0.25	0.5	0.125	1	0.25	–	<1
CN[C@@H](Cc1c[nH]c2ccccc12)C(=O)N[C@H]1CSSC[C@@H](C(=O)N(C)CC(=O)N[C@@H](CCN)C(=O)N[C@H](C(=O)N[C@@H](CCN)C(=O)N[C@H]2CCNC(=O)[C@H]([C@@H](C)O)NC(=O)[C@H](CCN)NC(=O)[C@H](CCN)NC(=O)[C@H](CC(C)C)NC(=O)[C@@H](CC(C)C)NC(=O)[C@H](CCN)NC2=O)[C@@H](C)O)NC(=O)[C@H](Cc2ccc(O)cc2)NC(=O)[C@H](CN)NC(=O)[C@H](CC(C)C)NC(=O)[C@@H]2CCCN2C(=O)[C@H]2CCCN2C(=O)[C@H](Cc2ccc(O)cc2)NC(=O)[C@H](C)NC(=O)[C@H](C(C)C)NC1=O [Ex. 143] (H-[NMeW]CVAY[dP]PL[Dap]YC[Sar][Dab]T[Dab][Dab][Dab][dL]L[Dab][Dab]T; disulfide 2-11; lactam 16-C)	0.125	0.25	0.0625	0.03125	0.0625	0.125	0.0625	–	<1
CCCC[C@@H]1NC(=O)[C@@H]2CCCN2C(=O)[C@H]2CCCN2C(=O)[C@H](CO)NC(=O)[C@H](C)NC(=O)[C@H](C(C)(C)C)NC(=O)[C@@H](NC(=O)[C@H](Cc2c[nH]c3ccccc23)NC(C)=O)CSSC[C@@H](C(=O)N[C@@H](CCN)C(=O)N[C@H](C(=O)N[C@@H](CN)C(=O)N[C@H]2CCNC(=O)[C@H]([C@@H](C)O)NC(=O)[C@H](CCN)NC(=O)[C@H](CCN)NC(=O)[C@H](CC(C)C)NC(=O)[C@@H](Cc3ccccc3)NC(=O)[C@H](CCN)NC2=O)[C@@H](C)O)NC(=O)[C@H](Cc2ccc(O)cc2)NC(=O)[C@H](CO)NC1=O [Ex. 20] (Ac-WC[Tle]AS[dP]P[Nle]SYC[Dab]T[Dap][Dab][Dab][dF]L[Dab][Dab]T; disulfide 2-11; lactam 15-C)	1	0.25	0.5	0.125	0.5	0.25	0.25	–	1
CC(C)C[C@@H]1NC(=O)[C@H](CO)NC(=O)[C@H](Cc2ccc(O)cc2)NC(=O)[C@@H]2CCCN2C(=O)[C@H]2CCCN2C(=O)[C@H](Cc2ccc(O)cc2)NC(=O)[C@H](C)NC(=O)[C@H](C(C)C)NC(=O)[C@@H](NC(=O)[C@@H](N)Cc2c[nH]c3ccccc23)CSSC[C@@H](C(=O)NCC(=O)N[C@@H](CCN)C(=O)N[C@H](C(=O)N[C@@H](CCN)C(=O)N[C@H]2CCNC(=O)[C@H]([C@@H](C)O)NC(=O)[C@H](CCN)NC(=O)[C@H](CCN)NC(=O)[C@H](CC(C)C)NC(=O)[C@@H](CC(C)C)NC(=O)[C@H](CCN)NC2=O)[C@@H](C)O)NC1=O [Ex. 153] (H-WCVAY[dP]PYSLCG[Dab]T[Dab][Dab][Dab][dL]L[Dab][Dab]T; disulfide 2-11; lactam 16-C)	0.0625	0.5	0.125	0.0625	0.03125	0.0625	0.125	–	<1
